Consider 11 compounds from US12129246B1, “Hydroquinazoline derivatives for the treatment of a disease or disorder” (Novartis AG, priority 2023, dated 2024).

Assay [1] concerns the target T1, human NPR1 (Homo sapiens, UniProt P16066).
T1 construct: host or cells: CHO-K1
T1 sequence (P16066 33-1061): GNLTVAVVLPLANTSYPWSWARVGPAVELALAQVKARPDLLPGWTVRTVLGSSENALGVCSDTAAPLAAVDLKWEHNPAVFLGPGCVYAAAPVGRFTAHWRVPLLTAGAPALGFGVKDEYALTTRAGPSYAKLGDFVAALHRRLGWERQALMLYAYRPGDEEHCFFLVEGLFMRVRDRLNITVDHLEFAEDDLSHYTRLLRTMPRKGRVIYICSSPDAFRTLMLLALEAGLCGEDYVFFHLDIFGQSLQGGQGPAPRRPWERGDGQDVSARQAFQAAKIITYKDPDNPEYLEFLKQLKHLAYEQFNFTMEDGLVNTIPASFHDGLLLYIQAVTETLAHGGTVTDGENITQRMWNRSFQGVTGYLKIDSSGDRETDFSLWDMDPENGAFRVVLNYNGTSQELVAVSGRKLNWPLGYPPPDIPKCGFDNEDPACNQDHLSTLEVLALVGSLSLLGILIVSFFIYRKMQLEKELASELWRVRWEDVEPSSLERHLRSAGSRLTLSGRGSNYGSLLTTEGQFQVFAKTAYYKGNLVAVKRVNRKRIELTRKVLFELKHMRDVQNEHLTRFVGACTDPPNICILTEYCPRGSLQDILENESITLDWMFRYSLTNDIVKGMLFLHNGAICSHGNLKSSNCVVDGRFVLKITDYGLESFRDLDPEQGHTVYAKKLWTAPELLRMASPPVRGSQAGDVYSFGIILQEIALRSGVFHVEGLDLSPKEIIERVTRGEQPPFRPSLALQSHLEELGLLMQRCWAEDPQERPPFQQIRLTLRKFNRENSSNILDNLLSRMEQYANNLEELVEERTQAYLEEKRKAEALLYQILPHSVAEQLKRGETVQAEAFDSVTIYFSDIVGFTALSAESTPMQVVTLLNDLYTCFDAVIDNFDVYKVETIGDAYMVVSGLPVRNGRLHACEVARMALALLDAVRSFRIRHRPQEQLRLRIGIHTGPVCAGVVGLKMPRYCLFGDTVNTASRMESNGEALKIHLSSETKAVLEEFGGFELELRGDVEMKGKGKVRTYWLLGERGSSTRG
Put plainly: Cellular cGMP production assay, human NPR1 expressing CHO-K1 cells (CisBio HTRF). It counts as cell-based. The following applies: for AC50: cGMP production, 30 min at 37° C., 12-point dose-response from 30 μM; for Human NPR1 Amax (% of ANP): maximum cGMP production as percentage of the maximum cGMP produced with ANP. A digest of the protocol: (§1)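 Step 1: add buffer (PBS, 0.1% BSA, 1 mM IBMX) and compounds, 3-fold series from 30 μM top. Step 2: incubate 30 min, 37 °C. Step 3: lyse; HTRF reagents 1 h at RT.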

Assay [2] has as its target monkey NPR1 (Macaca fascicularis, UniProt A0A7N9DBT9). The experiment in a line: Cellular cGMP production assay, monkey NPR1 expressing CHO-K1 cells (CisBio HTRF). It counts as cell-based. The following applies: for Monkey NPR1 Amax (% of ANP): maximum cGMP production as percentage of the maximum cGMP produced with ANP. Summed up: as §1
Setting [3] is: cGMP production, monkey NPR1 CHO-K1 cells, 30 min at 37° C., 12-point dose-response from 30 μM, read-out: Monkey NPR1 AC50.

Read-outs that look alike come from different tables or passages of the source.

Sequence of monkey NPR1 (A0A7N9DBT9 entry or part of it): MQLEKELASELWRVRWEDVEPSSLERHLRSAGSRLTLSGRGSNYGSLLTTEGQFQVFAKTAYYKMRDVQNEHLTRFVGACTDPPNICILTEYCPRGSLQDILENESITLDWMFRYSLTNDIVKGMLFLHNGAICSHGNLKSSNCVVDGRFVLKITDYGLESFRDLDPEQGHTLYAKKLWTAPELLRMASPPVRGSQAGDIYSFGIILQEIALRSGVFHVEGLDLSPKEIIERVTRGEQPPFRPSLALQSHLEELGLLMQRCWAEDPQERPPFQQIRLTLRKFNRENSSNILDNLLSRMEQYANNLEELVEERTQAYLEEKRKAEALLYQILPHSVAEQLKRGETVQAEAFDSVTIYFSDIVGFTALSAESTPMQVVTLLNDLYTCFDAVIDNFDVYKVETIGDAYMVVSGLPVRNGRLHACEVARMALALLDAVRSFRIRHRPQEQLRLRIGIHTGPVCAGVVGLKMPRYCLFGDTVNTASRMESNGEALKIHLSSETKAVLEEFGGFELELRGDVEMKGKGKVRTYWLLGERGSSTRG

For `CC[C@@H](N(C)c1nc2c(c(N[C@@H](CN3C4CCCC3CC4)c3cnn(CC)c3)n1)C[C@H](c1cccc(F)c1)CC2)C12CC(C(=O)O)(C1)C2` [Compound 42, 3-((1R)-1-(((6R)-4-(((1R)-2-(8-azabicyclo[3.2.1]octan-8-yl)-1-(1-ethyl-1H-pyrazol-4-yl)ethyl)amino)-6-(3-fluorophenyl)-5,6,7,8-tetrahydroquinazolin-2-yl)(methyl)amino)propyl)bicyclo[1.1.1]pentane-1-carboxylic acid], in assay [1], the AC50 turned out to be 169 nM and the “Human NPR1 Amax (% of ANP)” value is recorded as 92.080 % of ANP. This compound displayed an AC50 in assay [2] of 146 nM. Also, the “Monkey NPR1 Amax (% of ANP)” value in assay [2] (monkey NPR1 CHO-K1 cells) was 101.138 % of ANP.
`CC[C@@H](N(C)c1nc2c(c(N[C@@H](CN3C4CCCC3CC4)c3sc(C)nc3C)n1)C[C@H](c1cccc(F)c1)CC2)C12CC(C(=O)O)(C1)C2` [Compound 111, 3-((1R)-1-(((6R)-4-(((1S)-2-(8-azabicyclo[3.2.1]octan-8-yl)-1-(2,4-dimethylthiazol-5-yl)ethyl)amino)-6-(3-fluorophenyl)-5,6,7,8-tetrahydroquinazolin-2-yl)(methyl)amino)propyl)bicyclo[1.1.1]pentane-1-carboxylic acid]: in assay [1], the AC50 was determined as 424 nM and the “Human NPR1 Amax (% of ANP)” value is given as 106.085 % of ANP. Besides, in assay [2], the AC50 stood at 271 nM. Moreover, in assay [2] (monkey NPR1 CHO-K1 cells), the “Monkey NPR1 Amax (% of ANP)” value is given as 103.264 % of ANP.
In the case of `CC[C@H]([C@H]1CC[C@H](C(=O)O)CC1)N(C)c1nc2c(c(N[C@@H](CN3C4CCCC3CCC4)c3cnn(C)c3)n1)C[C@H](c1ccccc1)CC2` [Compound 143, (1R,4r)-4-((R)-1-(((R)-4-(((R)-2-((1S,5S)-9-azabicyclo[3.3.1]nonan-9-yl)-1-(1-methyl-1H-pyrazol-4-yl)ethyl)amino)-6-phenyl-5,6,7,8-tetrahydroquinazolin-2-yl)(methyl)amino)propyl)cyclohexane-1-carboxylic acid], in assay [1], the AC50 was determined as 920 nM and the “Human NPR1 Amax (% of ANP)” value is on record as 104.085 % of ANP. Moreover, the activity in assay [2] was half-maximal at 694 nM (AC50). In addition, the “Monkey NPR1 Amax (% of ANP)” value in assay [2] (monkey NPR1 CHO-K1 cells) was 100.784 % of ANP.
Take `CC[C@H]([C@H]1CC[C@H](C(=O)O)CC1)N(C)c1nc2c(c(N[C@@H](CN3C4CCCC3CC4)c3ccnn3C)n1)C[C@H](c1cccc(F)c1)CC2` [Compound 164, (1R,4r)-4-((1R)-1-(((6R)-4-(((1S)-2-(8-azabicyclo[3.2.1]octan-8-yl)-1-(1-methyl-1H-pyrazol-5-yl)ethyl)amino)-6-(3-fluorophenyl)-5,6,7,8-tetrahydroquinazolin-2-yl)(methyl)amino)propyl)cyclohexane-1-carboxylic acid]: in assay [1], the AC50 came out at 1780 nM and the “Human NPR1 Amax (% of ANP)” value was 94.088 % of ANP. Besides, in assay [2], the AC50 stood at 946 nM. Besides, in assay [2] (monkey NPR1 CHO-K1 cells), the “Monkey NPR1 Amax (% of ANP)” value was 92.193 % of ANP.
On to `CC[C@H]([C@H]1CC[C@H](C(=O)O)CC1)N(C)c1nc2c(c(N[C@@H](CN3C4CCC3CC4)c3cnn(C)c3)n1)C[C@](C)(c1ccccc1)CC2` [Compound 70, (1R,4r)-4-((R)-1-(((R)-4-(((R)-2-(7-azabicyclo[2.2.1]heptan-7-yl)-1-(1-methyl-1H-pyrazol-4-yl)ethyl)amino)-6-methyl-6-phenyl-5,6,7,8-tetrahydroquinazolin-2-yl)(methyl)amino)propyl)cyclohexane-1-carboxylic acid], for which the figures for the AC50 in assay [1] and in assay [2] were 234 nM and 230 nM, respectively. In assay [1], the “Human NPR1 Amax (% of ANP)” value is recorded as 97.399 % of ANP. For the same compound, the “Monkey NPR1 Amax (% of ANP)” value in assay [2] (monkey NPR1 CHO-K1 cells) is given as 100.673 % of ANP.
`CC[C@H]([C@H]1CC[C@H](C(=O)O)CC1)N(C)c1nc2c(c(N[C@@H](CN3CCC[C@H](C)C3)c3cnn(C)c3)n1)CN(c1ccc(F)cc1)CC2` [Compound 110, (1R,4r)-4-((R)-1-((6-(4-fluorophenyl)-4-(((R)-1-(1-methyl-1H-pyrazol-4-yl)-2-((S)-3-methylpiperidin-1-yl)ethyl)amino)-5,6,7,8-tetrahydropyrido[4,3-d]pyrimidin-2-yl)(methyl)amino)propyl)cyclohexane-1-carboxylic acid]: the AC50 in assay [1] came to 419 nM; in assay [2] (setting [3]), 238 nM. The “Human NPR1 Amax (% of ANP)” value in assay [1] was 99.979 % of ANP. Also, the “Monkey NPR1 Amax (% of ANP)” value in assay [2] (monkey NPR1 CHO-K1 cells) is 103.438 % of ANP.
As for `CC[C@@H](N(C)c1nc2c(c(N[C@@H](CN3C4CCCC3CCC4)c3cnn(C)c3)n1)C[C@H](c1ccccc1F)CC2)C12CC(C(=O)O)(C1)C2` [Compound 41, 3-((R)-1-(((R)-4-(((R)-2-(9-azabicyclo[3.3.1]nonan-9-yl)-1-(1-methyl-1H-pyrazol-4-yl)ethyl)amino)-6-(2-fluorophenyl)-5,6,7,8-tetrahydroquinazolin-2-yl)(methyl)amino)propyl)bicyclo[1.1.1]pentane-1-carboxylic acid], in assay [1], the AC50 stood at 168 nM and the “Human NPR1 Amax (% of ANP)” value was 96.843 % of ANP. This compound showed an AC50 in assay [2] of 144 nM. Besides, the “Monkey NPR1 Amax (% of ANP)” value in assay [2] (monkey NPR1 CHO-K1 cells) is listed as 92.494 % of ANP.
In the case of `CC[C@H]([C@H]1CC[C@H](C(=O)O)CC1)N(C)c1nc2c(c(N[C@@H](CN3CC4CCC3C4)c3cnn(C)c3)n1)C[C@](C)(c1ccccc1)CC2` (stereo partly drawn) [Compound 68, (1R,4r)-4-((1R)-1-(((6R)-4-(((1R)-2-(2-azabicyclo[2.2.1]heptan-2-yl)-1-(1-methyl-1H-pyrazol-4-yl)ethyl)amino)-6-methyl-6-phenyl-5,6,7,8-tetrahydroquinazolin-2-yl)(methyl)amino)propyl)cyclohexane-1-carboxylic acid], the AC50 in assay [1] was 234 nM; in assay [2] (setting [3]) it was 95 nM. In assay [1], the “Human NPR1 Amax (% of ANP)” value is given as 96.721 % of ANP. Moreover, the “Monkey NPR1 Amax (% of ANP)” value in assay [2] (monkey NPR1 CHO-K1 cells) is on record as 101.066 % of ANP.
Take `CC[C@H]([C@H]1CC[C@H](C(=O)O)CC1)N(C)c1nc2c(c(N[C@@H](CN3CCC[C@H](C(F)F)C3)c3cnn(C)c3)n1)C[C@H](c1cccc(F)c1)CC2` [Compound 54, (1R,4r)-4-((R)-1-(((R)-4-(((R)-2-((S)-3-(difluoromethyl)piperidin-1-yl)-1-(1-methyl-1H-pyrazol-4-yl)ethyl)amino)-6-(3-fluorophenyl)-5,6,7,8-tetrahydroquinazolin-2-yl)(methyl)amino)propyl)cyclohexane-1-carboxylic acid]: in assay [1], the activity was half-maximal at 194 nM (AC50) and the “Human NPR1 Amax (% of ANP)” value is on record as 95.979 % of ANP. The AC50 in assay [2] (setting [3]) is 174 nM. The “Monkey NPR1 Amax (% of ANP)” value in assay [2] (monkey NPR1 CHO-K1 cells) is 103.704 % of ANP.
On the same counts, the results for `C[C@H]1CCCN(C[C@H](Nc2nc(N(C)[C@H](C3CC3)[C@H]3CC[C@H](C(=O)O)CC3)nc3c2C[C@H](c2ccccc2)CC3)c2cnn(C)c2)C1` [Compound 120, (1R,4r)-4-((R)-cyclopropyl(methyl((R)-4-(((R)-1-(1-methyl-1H-pyrazol-4-yl)-2-((S)-3-methylpiperidin-1-yl)ethyl)amino)-6-phenyl-5,6,7,8-tetrahydroquinazolin-2-yl)amino)methyl)cyclohexane-1-carboxylic acid] are 553 nM, 96.905 % of ANP, 427 nM and 102.755 % of ANP.
Take `CC[C@H]([C@H]1CC[C@H](CC(=O)O)CC1)N(C)c1nc2c(c(N[C@@H](CN3CCC[C@H](C)C3)c3cnn(C)c3)n1)C[C@H](c1cccc(F)c1)CC2` [Compound 39, 2-((1R,4r)-4-((R)-1-(((R)-6-(3-fluorophenyl)-4-(((R)-1-(1-methyl-1H-pyrazol-4-yl)-2-((S)-3-methylpiperidin-1-yl)ethyl)amino)-5,6,7,8-tetrahydroquinazolin-2-yl)(methyl)amino)propyl)cyclohexyl)acetic acid]: the results for the AC50 in assay [1] and in assay [2] (setting [3]) were 162 nM and 102 nM, respectively. In assay [1], the “Human NPR1 Amax (% of ANP)” value was 100.189 % of ANP. In addition, the “Monkey NPR1 Amax (% of ANP)” value in assay [2] (monkey NPR1 CHO-K1 cells) is on record as 97.588 % of ANP.
